Patent publication US20240132484A1, “BROAD SPECTRUM ANTIVIRAL COMPOUNDS TARGETING THE SKI COMPLEX” (priority 2020, published 2024)

System: Influenza virus
Assay: organism not typed
Assay type: cell-based, influenza A virus
Settings: for Avg PFU/ml: average of first and second experiment; for Flu titer (pfu/ml): A549 cells

Compound	first experiment (10 μM screen) [PFU/ml]	second experiment (10 μM screen) [PFU/ml]	Avg PFU/ml (10 μM screen) [PFU/ml]	Influenza virus titer, 10 μM (10 μM, upper part of table (FIG. 5 data), plaque assay) [PFU/virus/ml]	first experiment PFU/ml (50 μM screen) [PFU/ml]	second experiment PFU/ml (50 μM screen) [PFU/ml]	Avg PFU/ml (50 μM screen) [PFU/ml]	Influenza virus titer, 50 μM (50 μM, upper part of table (FIG. 5 data), plaque assay) [PFU/virus/ml]	Flu titer (pfu/ml) (1 μM compound, plaque assay)	Flu titer (pfu/ml) (10 μM compound, plaque assay)	Flu titer (pfu/ml) (50 μM compound, plaque assay)
COc1ccc(CNCCc2cccnc2)c(OCC(O)CN2CCCCCCC2)c1 (centres unmarked) [Compound 18-9]	200000	9000	104500	200000	20000	2600	11300	20000			
COc1ccc(OC)c(Cc2nnc(CCC(=O)NC3CC(C)(C)CC(C)(C)C3)o2)c1 [Compound 35434810, 3-[5-(2,5-dimethoxybenzyl)-1,3,4-oxadiazol-2-yl]-N-(3,3,5,5-tetramethylcyclohexyl)propanamide]									80000	80000	130000
COc1ccc(NC(=O)c2ccccc2OCC(=O)NC2CCCCC2)c([N+](=O)[O-])c1 [Compound 7900806, 2-[2-(cyclohexylamino)-2-oxoethoxy]-N-(4-methoxy-2-nitrophenyl)benzamide]									77000	60000	54000
